Molecular target: T1, recombinant human NAE enzyme (Homo sapiens, UniProt Q8TBC4)
T1 construct: His (N); made in house; host or cells: Sf9 insect cells (baculovirus, Bac-to-Bac), purified on Ni-NTA
T1 sequence (Q8TBC4 1-463): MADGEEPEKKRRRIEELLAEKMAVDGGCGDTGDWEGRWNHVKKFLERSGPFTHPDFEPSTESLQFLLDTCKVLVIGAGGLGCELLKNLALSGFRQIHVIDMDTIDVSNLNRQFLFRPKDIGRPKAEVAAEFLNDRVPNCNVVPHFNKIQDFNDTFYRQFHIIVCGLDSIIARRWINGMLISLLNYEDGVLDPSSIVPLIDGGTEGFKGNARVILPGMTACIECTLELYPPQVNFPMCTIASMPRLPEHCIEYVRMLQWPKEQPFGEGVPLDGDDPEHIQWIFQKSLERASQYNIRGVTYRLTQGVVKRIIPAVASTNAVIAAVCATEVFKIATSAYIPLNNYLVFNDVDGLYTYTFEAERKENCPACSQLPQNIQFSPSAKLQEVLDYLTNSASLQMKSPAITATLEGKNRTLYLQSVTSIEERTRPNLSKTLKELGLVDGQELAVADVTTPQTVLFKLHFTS
T1 sequence (Q13564 1-534 partner): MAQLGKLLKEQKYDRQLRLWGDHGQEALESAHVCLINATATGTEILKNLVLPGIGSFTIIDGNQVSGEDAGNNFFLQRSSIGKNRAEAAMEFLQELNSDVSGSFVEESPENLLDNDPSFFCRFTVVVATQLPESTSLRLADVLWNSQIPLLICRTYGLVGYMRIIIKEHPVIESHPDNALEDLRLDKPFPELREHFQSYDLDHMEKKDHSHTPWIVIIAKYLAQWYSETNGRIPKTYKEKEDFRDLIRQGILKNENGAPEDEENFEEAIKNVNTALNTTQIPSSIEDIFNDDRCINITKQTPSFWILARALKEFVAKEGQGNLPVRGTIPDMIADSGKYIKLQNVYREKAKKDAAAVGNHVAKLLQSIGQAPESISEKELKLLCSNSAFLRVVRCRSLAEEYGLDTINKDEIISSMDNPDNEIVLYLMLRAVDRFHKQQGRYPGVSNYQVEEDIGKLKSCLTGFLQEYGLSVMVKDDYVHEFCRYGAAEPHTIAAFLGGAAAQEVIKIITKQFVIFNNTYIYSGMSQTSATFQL
Experiment: Nedd8-Activating Enzyme (NAE) HTRF Assay
Type: biochemical
Conditions: threshold statement: less than or equal to 100 nM; 20 μM ATP, 90 minutes at 24° C.
Protocol: Following manufacturer instructions, baculoviruses were generated with the Bac-to-Bac Expression System (Invitrogen) for the following proteins: untagged NAEα (APPBP1; NP_003896.1), N-terminally His-tagged NAEβ (UBE1C; NP_003959.3), untagged SAEα (SAE1; NP_005491.1), N-terminally His-tagged SAEβ (UBA2; NP_005490.1), N-terminally His-tagged murine UAE (UBE1X; NP_033483). NAEα/His-NAEβ and SAEα/His-SAEβ complexes were generated by co-infection of Sf9 cells, which were harvested after 48 hours. His-mUAE was generated by single infection of Sf9 cells and harvested after 72 hours. Expressed proteins were purified by affinity chromatography (Ni—NTA agarose, Qiagen) using standard buffers. Ubc12 (UBE2M; NP_003960.1), Ubc9 (UBE2I; NP_003336.1), Ubc2 (UBE2A; NP_003327.2) were subcloned into pGEX (Pharmacia) and expressed as N-terminally GST tagged fusion proteins in E. coli. Expressed proteins were purified by conventional affinity chromatography using standard buffers. Nedd8 (NP_006147), Sumo-1 (NP_003343) and Ubiquitin (with optimized codons) were subcloned into pFLAG-2 (Sigma) and expressed as N-terminally Flag tagged fusion proteins in E. coli. Expressed proteins were purified by conventional chromatography using standard buffers. Nedd8-Activating Enzyme (NAE) HTRF Assay. The NAE enzymatic reaction totaled 50 μL and contained 50 mM HEPES (pH 7.5), 0.05% BSA, 5 mM MgCl2, 20 μM ATP, 250 μM GSH, 0.01 μM Ubc12-GST, 0.075 μM Nedd8-Flag and 0.28 nM recombinant human NAE enzyme. The enzymatic reaction mixture, with and without compound inhibitor, was incubated at 24° C. for 90 minutes in a 384-well plate before termination with 25 μL of Stop/Detection buffer (0.1M HEPES pH 7.5, 0.05% Tween20, 20 mM EDTA, 410 mM KF, 0.53 nM Europium-Cryptate labeled monoclonal anti-FLAG M2 antibody (CisBio International) and 8.125 μg/mL PHYCOLINK goat anti-GST allophycocyanin (XL-APC) antibody (Prozyme)). After incubation for 3 hours at 24° C., quantification of the FRET was performed on the Analyst™ HT 96.384 (Molecular Devices).

IC50, ≤ 100 nM:
CNc1ncnc2c1ccn2[C@@H]1C[C@@H](COS(N)(=O)=O)[C@@H](O)C1 [Compound I-40, {(1S,2S,4R)-2-hydroxy-4-[4-(methylamino)-7H-pyrrolo[2,3-d]pyrimidin-7-yl]-cyclopentyl}methyl sulfamate]
Cc1cc(CNc2ncnc3c2ccn3[C@@H]2C[C@@H](COS(N)(=O)=O)[C@@H](O)C2)no1 [Compound I-41, [(1S,2S,4R)-2-hydroxy-4-(4-{[(5-methylisoxazol-3-yl)methyl]amino}-7H-pyrrolo-[2,3-d]pyrimidin-7-yl)cyclopentyl]methyl sulfamate]
NS(=O)(=O)OC[C@@H]1C[C@@H](n2ccc3c(NCc4ccc(Cl)cc4C(F)(F)F)ncnc32)C[C@@H]1O [Compound I-42, [(1S,2S,4R)-4-(4-{[4-chloro-2-(trifluoromethyl)benzyl]amino}-7H-pyrrolo[2,3-d]-pyrimidin-7-yl)-2-hydroxycyclopentyl]methyl sulfamate]
COc1ccccc1CNc1ncnc2c1ccn2[C@@H]1C[C@@H](COS(N)(=O)=O)[C@@H](O)C1 [Compound I-43, ((1S,2S,4R)-2-hydroxy-4-{4-[(2-methoxybenzyl)amino]-7H-pyrrolo[2,3-d]-pyrimidin-7-yl)cyclopentyl)methyl sulfamate]
C#Cc1cn([C@@H]2C[C@@H](COS(N)(=O)=O)[C@@H](O)C2)c2ncnc(C)c12 [Compound I-44, [(1S,2S,4R)-4-(5-ethynyl-4-methyl-7H-pyrrolo[2,3-d]pyrimidin-7-yl)-2-hydroxycyclopentyl]methyl sulfamate]
NS(=O)(=O)OC[C@@H]1C[C@@H](n2ccc3c(NCc4ccc(Cl)cc4)ncnc32)C[C@@H]1O [Compound I-45, ((1S,2S,4R)-4-{4-[(4-chlorobenzyl)amino]-7H-pyrrolo[2,3-d]pyrimidin-7-yl}-2-hydroxycyclopentyl)methyl sulfamate]
Cc1ncnc2c1ccn2[C@@H]1C[C@@H](COS(N)(=O)=O)[C@@H](O)C1 [Compound I-46, [(1S,2S,4R)-2-hydroxy-4-(4-methyl-7H-pyrrolo[2,3-d]pyrimidin-7-yl)cyclopentyl]methyl sulfamate]
NS(=O)(=O)OC[C@@H]1C[C@@H](n2ccc3c(NCc4ccccc4C(F)(F)F)ncnc32)C[C@@H]1O [Compound I-47, [(1S,2S,4R)-2-hydroxy-4-(4-{[2-(trifluoromethyl)benzyl]amino}-7H-pyrrolo-[2,3-d]pyrimidin-7-yl)cyclopentyl]methyl sulfamate]
Cc1cc(Cl)ccc1CNc1ncnc2c1ccn2[C@@H]1C[C@@H](COS(N)(=O)=O)[C@@H](O)C1 [Compound I-48, ((1S,2S,4R)-4-{4-[(4-chloro-2-methylbenzyl)amino]-7H-pyrrolo[2,3-d]pyrimidin-7-yl}-2-hydroxycyclopentyl)methyl sulfamate]
NS(=O)(=O)OC[C@@H]1C[C@@H](n2ccc3c(NCc4ccccc4)ncnc32)C[C@@H]1O [Compound I-49, {(1S,2S,4R)-4-[4-(benzylamino)-7H-pyrrolo[2,3-d]pyrimidin-7-yl]-2-hydroxycyclopentyl}methyl sulfamate]
CC(C)(Cc1ncnc2c1ccn2[C@@H]1C[C@@H](COS(N)(=O)=O)[C@@H](O)C1)c1ccccc1 [Compound I-50, {(1S,2S,4R)-2-hydroxy-4-[4-(2-methyl-2-phenylpropyl)-7H-pyrrolo[2,3-d]-pyrimidin-7-yl]cyclopentyl}methyl sulfamate]
NS(=O)(=O)OC[C@@H]1C[C@@H](n2ccc3c(NCc4cccc(Cl)c4)ncnc32)C[C@@H]1O [Compound I-51, ((1S,2S,4R)-4-{4-[(3-chlorobenzyl)amino]-7H-pyrrolo[2,3-d]pyrimidin-7-yl}-2-hydroxycyclopentyl)methyl sulfamate]
CO[C@H]1Cc2ccccc2[C@H]1Nc1ncnc2c1ccn2[C@@H]1C[C@@H](COS(N)(=O)=O)[C@@H](O)C1 [Compound I-52, [(1S,2S,4R)-2-hydroxy-4-(4-{[(1R,2S)-2-methoxy-2,3-dihydro-1H-inden-1-yl]-amino}-7H-pyrrolo[2,3-d]pyrimidin-7-yl)cyclopentyl]methyl sulfamate]
CC(C)O[C@H]1Cc2ccccc2[C@H]1Nc1ncnc2c1ccn2[C@@H]1C[C@@H](COS(N)(=O)=O)[C@@H](O)C1 [Compound I-54, [(1S,2S,4R)-2-hydroxy-4-(4-{[(1R,2S)-2-isopropoxy-2,3-dihydro-1H-inden-1-yl]-amino}-7H-pyrrolo[2,3-d]pyrimidin-7-yl)cyclopentyl]methyl sulfamate]
NS(=O)(=O)NC[C@@H]1C[C@@H](n2ccc3c(N[C@H]4CCc5ccccc54)ncnc32)C[C@@H]1O [Compound I-56, N-[((1S,2S,4R)-4-{4-[(1S)-2,3-dihydro-1H-inden-1-ylamino]-7H-pyrrolo[2,3-d]-pyrimidin-7-yl}-2-hydroxycyclopentyl)methyl]sulfamide]
NS(=O)(=O)CC[C@@H]1C[C@@H](n2ccc3c(N[C@H]4CCc5ccccc54)ncnc32)C[C@@H]1O [Compound I-59, 2-((1S,2S,4R)-4-{4-[(1S)-2,3-dihydro-1H-inden-1-ylamino]-7H-pyrrolo[2,3-d]-pyrimidin-7-yl}-2-hydroxycyclopentyl)ethanesulfonamide]
NS(=O)(=O)OC[C@@H]1C[C@@H](n2ccc3c(N[C@H]4CCc5c(F)cccc54)ncnc32)C[C@@H]1O [Compound I-61, [(1S,2S,4R)-4-(4-{[(1S)-4-fluoro-2,3-dihydro-1H-inden-1-yl]amino}-7H-pyrrolo[2,3-d]pyrimidin-7-yl)-2-hydroxycyclopentyl]methyl sulfamate]
NS(=O)(=O)OC[C@@H]1C[C@@H](n2ccc3c(N[C@H]4CCc5c(F)ccc(F)c54)ncnc32)C[C@@H]1O [Compound I-62, [(1S,2S,4R)-4-(4-{[(1S)-4,7-difluoro-2,3-dihydro-1H-inden-1-yl]amino}-7H-pyrrolo[2,3-d]pyrimidin-7-yl)-2-hydroxycyclopentyl]methyl sulfamate]
NS(=O)(=O)OC[C@@H]1C[C@@H](n2ccc3c(N[C@@H]4CCc5c(Cl)cccc54)ncnc32)C[C@@H]1O [Compound I-63, [(1S,2S,4R)-4-(4-{[(1R)-4-chloro-2,3-dihydro-1H-inden-1-yl]amino}-7H-pyrrolo[2,3-d]pyrimidin-7-yl)-2-hydroxycyclopentyl]methyl sulfamate]
NS(=O)(=O)OC[C@@H]1C[C@@H](n2ccc3c(N[C@H]4CCc5c(Cl)cccc54)ncnc32)C[C@@H]1O [Compound I-64, [(1S,2S,4R)-4-(4-{[(1S)-4-chloro-2,3-dihydro-1H-inden-1-yl]amino}-7H-pyrrolo[2,3-d]pyrimidin-7-yl)-2-hydroxycyclopentyl]methyl sulfamate]

Reference: US8207177B2, “Inhibitors of E1 activating enzymes” (Millennium Pharmaceuticals, Inc., priority 2006, dated 2012)
